Reference: patent publication US20240002395A1, “COMPOUNDS AND THEIR USE FOR TREATING NEUROPATHIC PAIN” (The Johns Hopkins University, priority 2020, published 2024)

Tests used:
[1] = Metabolic stability in human liver microsomes; format: in vitro ADME
Description: [The procedure below names another species; the source lists this species under the same test.] (§1) The metabolic stability was evaluated using mouse liver microsomes. For the cytochrome P450 (CYP)-mediated metabolism, the reaction was carried out with 100 mM potassium phosphate buffer, pH 7.4, in the presence of NADPH regenerating system (1.3 mM NADPH, 3.3 mM glucose 6-phosphate, 3.3 mM MgCl2, 0.4 U/mL glucose-6-phosphate dehydrogenase, 50 μM sodium citrate). Reactions, in triplicate, were initiated by addition of the liver microsomes to the incubation mixture (compound final concentration was 5 μM; 0.5 mg/mL microsomes). After 60 min of incubation, aliquots of the mixture were removed and the reaction quenched by addition of three times the volume of ice-cold acetonitrile spiked with the internal standard. Compound disappearance was monitored over time using a liquid chromatography and tandem mass spectrometry (LC/MS/MS) method.

[2] = Metabolic stability in mouse liver microsomes; format: in vitro ADME; details: mouse liver microsomes 0.5 mg/mL, NADPH, compound 5 μM, 60 min
Description: as §1

human MrgprX1 = target: T1, human MrgprX1 (Homo sapiens, UniProt Q96LB2); experiment: MrgprX1 positive allosteric modulator (PAM) calcium FLIPR assay in HEK293 cells; format: cell-based; details: PAM activity in presence of EC20 concentration of BAM8-22; HEK293 cells stably transfected with human MrgprX1
T1 construct: expressed in transfected cells
T1 sequence (Q96LB2 whole entry): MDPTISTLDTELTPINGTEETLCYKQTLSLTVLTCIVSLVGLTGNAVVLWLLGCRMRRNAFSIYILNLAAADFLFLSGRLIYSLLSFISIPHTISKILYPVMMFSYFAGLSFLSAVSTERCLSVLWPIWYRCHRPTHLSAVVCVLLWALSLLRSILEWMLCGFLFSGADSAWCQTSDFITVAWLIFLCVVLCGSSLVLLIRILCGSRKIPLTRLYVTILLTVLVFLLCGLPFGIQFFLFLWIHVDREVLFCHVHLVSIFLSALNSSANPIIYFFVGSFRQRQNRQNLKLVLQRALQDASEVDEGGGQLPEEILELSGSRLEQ
Description: HEK293 cells stably transfected with human MrgprX1 were plated onto poly-D-lysine-coated, black-walled, 96-well plates at a seeding density of 12,000 cells/well and grown for two days. On the day of the experiment, cells were incubated with Fluo-4 AM 2 μM, pluronic acid 0.04% and Trypan Red 1% in HBSS (pH 7.4, 100 μL) for 1 h at 37° C. For each different passage of cells, a BAM8-22 dose response was first conducted and the BAM8-22 EC20 determined. Test compounds were then dissolved and serially diluted in DMSO, further diluted with Trypan Red (1%)-containing HBSS (50 μL) and added to cells (0.33% DMSO concentration by volume) to first monitor for agonist activity. After 2.5 min, BAM8-22 at 4-fold EC20 (50 μL) was added to cells (0.25% DMSO concentration by volume) and the cells imaged on the FLIPR for an additional 2 minutes to monitor the test compounds for PAM activity. Finally, data were normalized to fluorescence signals obtained from 250 nM of BAM8-22 (maximum) and BAM8-22 at its EC20 concentration (minimum). EC50 of a test compound was defined as the concentration required to provoke a response halfway between the minimum and maximum response in the presence of EC20 concentration of BAM8-22.

| Structure (SMILES) | % remaining after 1-h incubation, Human [1] [%] | % remaining after 1-h incubation, Mouse [2] [%] | EC50 (human MrgprX1) [nM] | melting point [°C] |
| --- | --- | --- | --- | --- |
| CC(C)(C)c1sc2ncnc(Oc3c(F)cccc3OC(F)(F)F)c2c1-c1ccc(Cl)cc1 [Compound 7ao, 6-tert-butyl-5-(4-chlorophenyl)-4-(2-fluoro-6-(trifluoromethoxy)phenoxy)thieno[2,3-d]pyrimidine] | >95 | >95 | 10 |  |
| CC(C)(C)c1sc2ncnc(Oc3c(F)cccc3OC(F)(F)F)c2c1-c1ccc(Cl)c(Cl)c1 [Compound 7b, 6-tert-butyl-5-(3,4-dichlorophenyl)-4-(2-fluoro-6-(trifluoromethoxy)phenoxy)thieno[2,3-d]pyrimidine] | >95 | 74 | 50 | 134 to 137 |
| CC(C)(C)c1cc2c(Oc3ccccc3F)ncnc2s1 [Compound 7bc, 6-(tert-butyl)-4-(2-fluorophenoxy)thieno[2,3-d]pyrimidine] | 61 | <5 | 400 |  |
| CC(C)(C)c1sc2ncnc(Oc3c(F)cccc3F)c2c1N1CCOCC1 [Compound 7bi, 4-(6-(tert-butyl)-4-(2,6-difluorophenoxy)thieno[2,3-d]pyrimidin-5-yl)morpholine] |  |  | 40 | 173 |
| CCN(CC)c1c(C(C)(C)C)sc2ncnc(Oc3c(F)cccc3OC(F)(F)F)c12 [Compound 7bj, 6-(tert-butyl)-N,N-diethyl-4-(2-fluoro-6-(trifluoromethoxy)phenoxy)thieno[2,3-d]pyrimidin-5-amine] |  |  | 70 | 72 |
| CC(C)(C)c1oc2ncnc(Oc3c(F)cccc3OC(F)(F)F)c2c1C(=O)N1CCCCC1 [Compound 7bk, (6-(tert-butyl)-4-(2-fluoro-6-(trifluoromethoxy)phenoxy)furo[2,3-d]pyrimidin-5-yl)(piperidin-1-yl)methanone] |  |  | 100 | 159 to 161 |
| CC(C)(C)c1sc2ncnc(Oc3cccc(OC(F)(F)F)c3)c2c1-c1ccc(Cl)c(Cl)c1 [Compound 7d, 6-tert-butyl-5-(3,4-dichlorophenyl)-4-(3-(trifluoromethoxy)phenoxy)thieno[2,3-d]pyrimidine] |  |  | > 10000 | 121 |
| CC(C)(C)c1sc2ncnc(Oc3cccnc3F)c2c1-c1ccc(Cl)c(Cl)c1 [Compound 7g, 6-tert-butyl-5-(3,4-dichlorophenyl)-4-(2-fluoropyridin-3-yloxy)thieno[2,3-d]pyrimidine] |  |  | 1000 | 164 |
| CC(C)(C)c1sc2ncnc(Oc3ccc(F)cc3)c2c1-c1ccc(Cl)c(Cl)c1 [Compound 7p, 6-tert-butyl-5-(3,4-dichlorophenyl)-4-(4-fluorophenoxy)thieno[2,3-d]pyrimidine] |  |  | 2000 | 179 |
| COc1ccccc1Oc1ncnc2sc(C(C)(C)C)c(-c3ccc(Cl)c(Cl)c3)c12 [Compound 7q, 6-tert-butyl-5-(3,4-dichlorophenyl)-4-(2-methoxyphenoxy)thieno[2,3-d]pyrimidine] |  |  | 700 | 136 |
| CCOc1ccccc1Oc1ncnc2sc(C(C)(C)C)c(-c3ccc(Cl)c(Cl)c3)c12 [Compound 7r, 6-tert-butyl-5-(3,4-dichlorophenyl)-4-(2-ethoxyphenoxy)thieno[2,3-d]pyrimidine] |  |  | 1000 | 119 |
| CC(C)(C)c1sc2ncnc(Oc3ccccc3OCC(F)(F)F)c2c1-c1ccc(Cl)c(Cl)c1 [Compound 7s, 6-tert-butyl-5-(3,4-dichlorophenyl)-4-(2-(2,2,2-trifluoroethoxy)phenoxy)thieno[2,3-d]pyrimidine] |  |  | 1000 | 136 |
| CC(C)(C)c1sc2ncnc(OC3CC3)c2c1-c1ccc(Cl)c(Cl)c1 [Compound 7x, 6-tert-butyl-4-cyclopropoxy-5-(3,4-dichlorophenyl)thieno[2,3-d]pyrimidine] |  |  | > 10000 | 172 |
| CC(C)(C)c1sc2ncnc(OC3CCC3)c2c1-c1ccc(Cl)c(Cl)c1 [Compound 7y, 6-tert-butyl-4-cyclobutoxy-5-(3,4-dichlorophenyl)thieno[2,3-d]pyrimidine] |  |  | 7000 | 146 |
| CC(C)(C)c1sc2ncnc(OC3CCCC3)c2c1-c1ccc(Cl)c(Cl)c1 [Compound 7z, 6-tert-butyl-4-(cyclopentyloxy)-5-(3,4-dichlorophenyl)thieno[2,3-d]pyrimidine] |  |  | 6000 | 112 |

The next lines start with the values.

| % remaining after 1-h incubation, Human [1] [%] | % remaining after 1-h incubation, Mouse [2] [%] | EC50 (human MrgprX1) [nM] | melting point [°C] | Structure (SMILES) |
| --- | --- | --- | --- | --- |
| >95 | >95 | 20 | 150 | CC(C)(C)c1sc2ncnc(Oc3c(F)cccc3OC(F)(F)F)c2c1-c1ccc(F)c(F)c1 [Compound 7al, 6-tert-butyl-5-(3,4-difluorophenyl)-4-(2-fluoro-6-(trifluoromethoxy)phenoxy)thieno[2,3-d]pyrimidine] |
|  | <5 | 500 | 107 | Cc1ccccc1Oc1ncnc2sc(C)c(C)c12 [Compound 7az, 5,6-dimethyl-4-(o-tolyloxy)thieno[2,3-d]pyrimidine] |
| <5 | <5 | 200 | 144 | Cc1sc2ncnc(Oc3ccccc3F)c2c1C [Compound 7ba, 4-(2-fluorophenoxy)-5,6-dimethylthieno[2,3-d]pyrimidine] |
|  |  | 300 | 66 | CC(C)(C)c1sc2ncnc(Oc3c(Cl)cccc3OC(F)(F)F)c2c1-c1ccc(Cl)c(Cl)c1 [Compound 7c, 6-tert-butyl-4-(2-chloro-6-(trifluoromethoxy)phenoxy)-5-(3,4-dichlorophenyl)thieno[2,3-d]pyrimidine] |
|  |  | > 100000 | 103 | CC(C)(C)c1sc2ncnc(Oc3ccc(OC(F)(F)F)cc3)c2c1-c1ccc(Cl)c(Cl)c1 [Compound 7e, 6-tert-butyl-5-(3,4-dichlorophenyl)-4-(4-(trifluoromethoxy)phenoxy)thieno[2,3-d]pyrimidine] |
|  |  | 4000 | 117 | CC(C)(C)c1sc2ncnc(Oc3cccnc3OC(F)(F)F)c2c1-c1ccc(Cl)c(Cl)c1 [Compound 7h, 6-tert-butyl-5-(3,4-dichlorophenyl)-4-(2-(trifluoromethoxy)pyridin-3-yloxy)thieno[2,3-d]pyrimidine] |
|  |  | 30000 | 207 | CC(C)(C)c1sc2ncnc(Oc3cccnc3N)c2c1-c1ccc(Cl)c(Cl)c1 [Compound 7j, 3-(6-tert-butyl-5-(3,4-dichlorophenyl)thieno[2,3-d]pyrimidin-4-yloxy)pyridin-2-amine] |
|  |  | > 100000 | 186 | CC(C)(C)c1sc2ncnc(Oc3ccnnc3)c2c1-c1ccc(Cl)c(Cl)c1 [Compound 7k, 6-tert-butyl-5-(3,4-dichlorophenyl)-4-(pyridazin-4-yloxy)thieno[2,3-d]pyrimidine] |
|  |  | 600 | 148 | CC(C)(C)c1sc2ncnc(Oc3ccccc3)c2c1-c1ccc(Cl)c(Cl)c1 [Compound 7l, 6-tert-butyl-5-(3,4-dichlorophenyl)-4-phenoxythieno[2,3-d]pyrimidine] |
|  |  | 100 | 163 | CC(C)(C)c1sc2ncnc(Oc3ccccc3F)c2c1-c1ccc(Cl)c(Cl)c1 [Compound 7m, 6-tert-butyl-5-(3,4-dichlorophenyl)-4-(2-fluorophenoxy)thieno[2,3-d]pyrimidine] |
|  |  | > 100000 | 144 | CC(C)(C)c1sc2ncnc(Oc3cccc(F)c3)c2c1-c1ccc(Cl)c(Cl)c1 [Compound 7o, 6-tert-butyl-5-(3,4-dichlorophenyl)-4-(3-fluorophenoxy)thieno[2,3-d]pyrimidine] |
|  |  | 400 | 151 | Cc1ccccc1Oc1ncnc2sc(C(C)(C)C)c(-c3ccc(Cl)c(Cl)c3)c12 [Compound 7t, 6-tert-butyl-5-(3,4-dichlorophenyl)-4-(o-tolyloxy)thieno[2,3-d]pyrimidine] |
|  |  | 3000 | 60 | CC(=O)c1ccccc1Oc1ncnc2sc(C(C)(C)C)c(-c3ccc(Cl)c(Cl)c3)c12 [Compound 7u, 1-(2-(6-tert-butyl-5-(3,4-dichlorophenyl)thieno[2,3-d]pyrimidin-4-yloxy)phenyl)ethanone] |
|  |  | > 10000 | 165 | CC(C)Oc1ncnc2sc(C(C)(C)C)c(-c3ccc(Cl)c(Cl)c3)c12 [Compound 7w, 6-tert-butyl-5-(3,4-dichlorophenyl)-4-isopropoxythieno[2,3-d]pyrimidine] |
